{"source": "patent US7189391B2", "about": "“Method of in vitro preconditioning healthy donor's myoblasts before transplantation thereof in compatible patients suffering of myopathies like muscular dystrophy, for improving transplantation success” (Université Laval, priority 1996, dated 2007)", "key": {"[1]": {"tested_on": "myoblasts", "assay": "Migration of transplanted myoblasts cultured with concanavalin A, anterior tibialis muscle of mice", "format": "in vivo, mouse", "settings": "CMVLacZ myoblasts cultured 2 days with 20 μg/ml concanavalin A", "description": "Myoblasts infected with a retrovirus expressing a beta-galactosidase gene have been cultured for four days in the presence or absence of 20 μg/ml concanavalin A, a lectine which stimulates the expression of metalloproteases. These myoblasts were then injected in one single site of the anterior tibialis muscle of eight mice, in order to verify the degree with which the transplanted cells are capable of migrating through the recipient tissue. After thirty days, mice were sacrificed and the muscle tissue was harvested, frozen and 10 μm thick slices were mounted on slides. […] Therefore, the presence of metalloproteases in the preconditioning medium or during the transplantation is beneficial to the spreading of the transplanted cells from the site of the injection through the recipient muscle tissue.\nFirst experiment: Myoblasts obtained from CMVLacZ mice (expressing a Beta-galactosidase gene) were cultured for two (2) days in the presence of twenty (20) μg/ml concanavalin A, a lectine which stimulates the expression of metalloproteases. When these myoblasts were injected in the anterior tibialis muscle of recipient mice, the migration of transplanted cells was increased by three (3) fold comparatively to myoblasts having not received the concanavalin treatment."}, "[2]": {"tested_on": "mdx mice", "assay": "Survival of retrovirally labelled myoblasts 3 days after transplantation in TA muscle", "format": "in vivo, mouse", "settings": "myoblasts grown with bFGF, 4×10^6 cells injected", "description": "(§1) The mdx mice were divided in three groups. Six mdx mice of one group were grafted in both tibialis anterior (TA) muscles: myoblasts grown with bFGF were injected in the left TA and myoblasts grown without bFGF were injected in the right TA. Myoblasts grown without bFGF were injected in only the left TA of six other mdx mice. These six mdx mice were then injected intramuscularly four times (after grafting 0, +1, +4 and +6 days) either with 10 μl of bFGF (100 ng/ml, 3 mice) or with 10 μl of HBSS (3 mice). The last five mice were grafted in both TA muscle with normal CD1 mouse myoblasts infected with replication defective retroviral vector LNPOZC7 (gift from Dr C. Cepko, Harvard, Boston, Mass.) which contains the LacZ gene. The left TA muscles were injected with 4 million myoblasts grown with bFGF, while the right TA muscles were injected with 4 million myoblasts grown without bFGF. Three days after grafting, these 5 mice were sacrificed to detect the number of β-galactosidase positive cells which survived in each TA muscle. The numbers of β-galactosidase positive cells were counted in 8 μm sections obtained at every 160 μm throughout the muscle. The total number of cells counted was multiplied by 20 to obtain an estimate of the number of surviving cells and a correction was made to account for the percentage of unlabelled cells in cultures with and without bFGF. […]"}, "[3]": {"tested_on": "primary myoblast cultures", "assay": "Effects of bFGF on primary myoblast culture (cell count, desmin staining)", "format": "cell-based, mouse", "source_text": "Primary myoblast cultures were established from muscle biopsies of newborn transgenic mice^26. The founder mouse (TnI Lac Z1/29) was provided by Dr. Hasting (McGill University, Montreal, Canada) onto the CD1 background and was reproduced in our laboratory. This transgenic mouse expresses the β-galactosidase gene under the control of the promoter of the quail fast skeletal muscle troponin I gene^16. […] Before starting myoblast cultures, it was necessary to identify transgenic newborns by X-gal staining of a small muscle biopsy because heterozygote transgenic mice were used as parents. Myogenic cells were released from skeletal muscle fragments of the transgenic newborns by serial enzyme treatments. First, a one hour digestion was done with 600 U/ml collagenase (Sigma, St. Louis, Mo., USA). This was followed by a 30 minute incubation in Hanck's balanced salt solution (HBSS) containing 0.1% w/v trypsin (Gibco Lab, Grand Island, N.Y., USA). Satellite cells were placed in 75 cm^2 culture flasks (Coster, Cambridge, Mass., USA) in proliferating medium, i.e. 199 medium (Gibco Lab.) with 15% fetal bovine serum (Gibco Lab.), 1% penicillin (10,000 U/ml) and 1% streptomycin (10,000 U/ml).\nOne day after starting culture, the culture medium of some flasks was replaced by medium containing 100 ng/ml human recombinant bFGF (Sigma). Three days after starting culture, myoblasts were detached from the flasks with 0.1% trypsin followed by three suspensions in HBSS and centrifugations (6500 RPM, 5 minutes). The final cell pellet was diluted in only 40 μl of HBSS.\nThe primary cultures were washed with PBS and fixed with 100% methanol at −4° C. They were then washed again 3 times with PBS and incubated 1 hr with a mAb anti-human desmin (Dako, Copenhagen, Denmark) diluted 1/50 with PBS containing 1% blocking serum (i.e. 0.33% rabbit serum, 0.33% horse serum and 0.33 fetal calf serum). They were washed 3 times with PBS with 1% blocking serum and incubated 1 hr with a 1/100 dilution (in PBS with 1% blocking serum) of a rabbit anti-mouse immunoglobulin (Dako).\nTo try to understand the beneficial effects of bFGF on myoblast transplantation, we examined the effect of a short stimulation (2 days) with 100 ng/ml bFGF on primary myoblast cultures. The total number of cells in each flask was not significant different (31.9±6.8×10^6 with bFGF n=5, 30.0±5.8×10^6 without FGF n=9, unpaired t-test: p=0.573). […] In these cultures, there was no difference in the percentage of myogenic nuclei (nuclei in myoblasts and in myotubes) between the two groups of cultures (Table 3, line 1). More myogenic cells were however fused in the absence of bFGF (Table 3, line 2). There was an higher percentage of the total nuclei (including myoblasts, myotubes and fibroblasts) which were myoblast nuclei in cultures containing bFGF (Table 3, line 3). The increase of myoblasts was more clear when the percentage of myoblasts was calculated among mononuclear cells (excluding the myotubes) (Table 3, lines 4 and 5). This was however only a 35% increase."}, "[4]": {"tested_on": "mdx mice", "assay": "Intramuscular injections of bFGF after myoblast transplantation in mdx mice", "format": "in vivo, mouse", "settings": "intramuscular injections of bFGF vs HBSS control", "description": "as §1"}, "[5]": {"tested_on": "primary cultures of myoblasts", "assay": "Transplantation of TnI-βGal myoblasts cultured with phorbol ester (TPA)", "format": "in vivo, mouse", "settings": "TPA 100 ng/ml, 2 days culture, n=5 mice", "description": "Imm 7 neo: expresses neomycin. Imm 7 Matrilysine: expresses neomycin and matrilysine. Tn I βgal: untreated transgenic mouse myoblasts expressing β-Gal. Tn I βGal+TPA: transgenic mouse myoblasts/β-Gal treated with phorbol ester.\nSecond experiment: primary cultures of myoblasts were obtained from transgenic mice (TnI-βGal+TPA). Myoblasts were cultured for two (2) days in the presence of phorbol ester (TPA 100 ng/ml) which also stimulates the expression metalloproteases."}, "[6]": {"settings": "with bFGF 100 ng/ml, 2 days, mean ± SD"}}, "data": [{"compound": "concanavalin A", "values": [{"measurement": "increase of migration of transplanted cells vs untreated myoblasts", "setting": "[1]", "result": 3, "unit": "fold"}]}, {"compound": "basic fibroblast growth factor [bFGF]", "values": [{"measurement": "number of β-galactosidase positive cells 3 days after transplantation", "setting": "[2]; left TA muscles, 5 mice", "result": "3.29±1.54×10^5 cells"}, {"measurement": "% of the injected cells surviving at 3 days", "setting": "[2]", "result": 8.2, "unit": "%"}, {"measurement": "total number of cells in each flask", "setting": "[3]; 2 days with 100 ng/ml bFGF, n=5", "result": "31.9±6.8×10^6"}, {"measurement": "increase of the percentage of myoblasts among mononuclear cells", "setting": "[3]; 2 days with bFGF vs without", "result": 35, "unit": "%"}, {"measurement": "% myoblast nuclei relative to non myotube nuclei", "setting": "[3]; [6]", "result": "32.2 ± 4.1", "unit": "%"}, {"measurement": "% myoblast nuclei relative to total nuclei", "setting": "[3]; [6]", "result": "30.9 ± 3.8", "unit": "%"}, {"measurement": "% of myoblast and myotube nucleic relative to total nuclei", "setting": "[3]; [6]", "result": "35.1 ± 4.8", "unit": "%"}, {"measurement": "% of myotube nuclei relative to total myotube and myoblast nuclei", "setting": "[3]; [6]", "result": "11.5 ± 6.6", "unit": "%"}, {"measurement": "% of non-myoblast nuclei relative to non myotube nuclei", "setting": "[3]; [6]", "result": "67.8 ± 4.1", "unit": "%"}, {"measurement": "difference in the percentage of hybrid or donor muscle fibers vs HBSS injections", "setting": "[4]", "result": "No significant difference"}]}, {"compound": "CCCCCCCCCCCCCC(=O)O[C@@H]1[C@@H](C)[C@@]2(O)[C@@H](C=C(CO)C[C@]3(O)C(=O)C(C)=C[C@@H]23)[C@@H]2C(C)(C)[C@]12OC(C)=O", "note": "[TPA, phorbol ester]", "values": [{"measurement": "area of generated fibers vs non-treated preparation", "setting": "[5]", "result": "four fold greater"}, {"measurement": "fibers generated vs non-treated preparation", "setting": "[5]", "result": "four times more fibers"}]}]}
